# Measurements: patent publication US9133492B2, “Kanamycin compound, kanamycin-producing Streptomyces species bacterium, and method of producing kanamycin” (iNtRON Biotechnology, Inc., priority 2010, dated 2015)
# Where two headings read alike, the source gives them in different places.
# Columns and labels:
# [1] = tested on: E. coli CCARM 1A020(Kan^S); assay: MIC by broth microdilution (CLSI), antibacterial spectra; type: cell-based, Escherichia coli
# Method: (§1) In one embodiment of the present invention, antibacterial spectra against kanamycin intermediates and analogs produced by the present invention were measured. Typical gram-negative strains (E. coli and Pseudomonas aeruginosa) and four clinically isolated strains were employed to check the antibacterial spectra (See table 2).
# (§2) To check the antibacterial spectra of kanamycin biosynthetic intermediates and their analogs, a total six kinds of Gram-negative bacteria such as kanamycin-sensitive (Kan^S) E. coli ATCC 25922, kanamycin-resistant (Kan^R) Pseudomonas aeruginosa ATCC 27853, Kan^S E. coli CCARM (Culture Collection of Antimicrobial Resistant Microbes, Korea) 1A020, Kan^R E. coli CCARM 1A023, amikacin-sensitive (Amk^S) P. aeruginosa CCARM 2206, and amikacin-resistance (Amk^R) P. aeruginosa CCARM 2178 were used.
# (§3) Minimum inhibitory concentrations (MICs) of various kanamycin-related pseudodi- and tri-saccharides and AHBA conjugated kanamycin analogs (except for compounds 16, 18, 19, and 20) were measured by broth microdilution according to the Clinical and Laboratory Standard Institute (CLSI, formerly NCCLS). As described in Example 2, gram-negative E. coli strains, P. aeruginosa strains, and clinically isolated strains were incubated in Mueller-Hinton broth (BD Science) at 30° C. […] An aliquot of water was used as a negative control group. The growth of the strains was observed using the Labsystems Bioscreen C, and the minimum concentrations of the aminoglycoside diluted in the broth medium to inhibit the growth of the bacterial strains were measured.
# [2] = tested on: E. coli CCARM 1A023(Kan^R); assay: as above; type: cell-based, Escherichia coli
# Method: as §1, §2, §3
# [3] = tested on: P. aeruginosa ATCC 27853(Kan^R); assay: microbe, parasite or virus in culture; type: cell-based; conditions: Pseudomonas aeruginosa, ATCC27853
# Method: as §1, §2, §3
# [4] = tested on: E. coli ATCC 25922(Kan^S); assay: microbe, parasite or virus in culture; type: cell-based, Escherichia coli
# Method: as §1, §2, §3
# [5] = tested on: P. aeruginosa CCARM 2178(Amk^R); assay: MIC by broth microdilution (CLSI), antibacterial spectra; type: cell-based, Pseudomonas aeruginosa; conditions: for MIC / activity: clinically isolated amikacin-resistant P. aeruginosa strain
# Method: as §1, §2, §3
# [6] = tested on: P. aeruginosa CCARM 2206(Amk^S); assay: as above; type: cell-based, Pseudomonas aeruginosa
# Method: as §1, §2, §3
# [7] = tested on: Gram-negative bacteria (E. coli and Pseudomonas aeruginosa test strains); assay: Antibacterial spectra, comparison across test strains; type: cell-based; conditions: for antibacterial activity, 6′-amino vs 6′-hydroxy pseudodisaccharides: against kanamycin-sensitive E. coli strains, compared with 6′-hydroxy derivatives 3 and 9; for antibacterial activity, 3″-amino vs 3″-hydroxy derivatives: against the test strains, compared with corresponding 3″-hydroxy derivatives 5, 13, 14 and 11; for antibacterial activity, 6′-amino vs 6′-hydroxy pseudotrisaccharides: against kanamycin-sensitive test strains, compared with compounds 6 and 12
# Method: as §1, §2, §3
# S. venezuelae = assay: Resistance of S. venezuelae strains to kanamycin; type: cell-based, Streptomyces venezuelae
# Method: As expected, the recombinant heterologous strain expressing kanA-kanB-kanK (DOS strain) produced compound 1 (21.4 μM) (FIG. 2A). To confer resistance to kanamycin in S. venezuelae without modifying the aminoglycoside structure, three resistance genes gtmF-gtmK-gtmL from the gentamicin gene cluster were introduced into the recombinant heterologous strain. Transformants expressing these genes were resistant to >10.0 mg/ml of the commercially available kanamycin compared to 1.0 μg/ml in control strains. These resistance genes were expressed together with the kanamycin biosynthetic genes in the heterologous host in subsequent experiments.
# [8] = Escherichia coli, E. coli CCARM 1A023, kanamycin-resistant clinically isolated strain, read-out: MIC
# [9] = Pseudomonas aeruginosa, CCARM2178, P. aeruginosa CCARM 2178, amikacin-resistant clinically isolated strain, read-out: MIC
# [10] = Pseudomonas aeruginosa, CCARM2206, P. aeruginosa CCARM 2206, amikacin-sensitive clinically isolated strain, read-out: MIC
# [11] = E. coli CCARM 1A020, kanamycin-sensitive clinically isolated strain
# [12] = E. coli CCARM 1A023, kanamycin-resistant clinically isolated strain
# [13] = P. aeruginosa CCARM 2178, amikacin-resistant clinically isolated strain
# [14] = P. aeruginosa CCARM 2206, amikacin-sensitive clinically isolated strain
# [15] = E. coli ATCC 25922, kanamycin-sensitive typical strain
# [16] = Pseudomonas aeruginosa, CCARM2178
# [17] = Pseudomonas aeruginosa, CCARM2206
Molecule,"MIC [1, 11]","MIC [2, 12]","MIC [5, 13]","MIC [6, 14]","MIC [4, 15]",other results
"NCC[C@H](O)C(=O)N[C@@H]1C[C@H](N)[C@@H](O[C@H]2O[C@H](CN)[C@@H](O)[C@H](O)[C@H]2O)[C@H](O)[C@H]1O[C@H]1O[C@H](CO)[C@@H](O)[C@H](N)[C@H]1O [Compound 15, amikacin, reference compound]",,,,,,"MIC ([1]; Escherichia coli): 128 µg/mL; MIC [2, 8]: 32 µg/mL; MIC [3]: 64 µg/mL; MIC ([4]; Escherichia coli, ATCC25922): 128 µg/mL; MIC [5, 9]: > 128 µg/mL; MIC / activity [5]: no activity; MIC [6, 10]: ≤ 0.25 µg/mL"
kanamycin D [Compound 14],128 µg/mL,NA (NA represents no activity at 128 μg/mL),NA (NA represents no activity at 128 μg/mL),NA (NA represents no activity at 128 μg/mL),,
"NCC1OC(OC2C(N)CC(N)C(O)C2O)C(O)C(O)C1O (stereo not shown) [Compound 10, 2′-deamino-2′-hydroxyneamine]",64 µg/mL,NA (NA represents no activity at 128 μg/mL),NA (NA represents no activity at 128 μg/mL),128 µg/mL,64 µg/mL,"antibacterial activity, 6′-amino vs 6′-hydroxy pseudodisaccharides [7]: more active"
"N[C@@H]1[C@@H](O)[C@@H](O[C@@H]2[C@@H](O)[C@H](O[C@H]3O[C@H](CO)[C@@H](O)[C@H](O)[C@H]3N)[C@@H](N)C[C@H]2N)O[C@H](CO)[C@H]1O [Compound 6, kanamycin C]",16 µg/mL,NA (NA represents no activity at 128 μg/mL),NA (NA represents no activity at 128 μg/mL),64 µg/mL,16 µg/mL,"antibacterial activity, 3″-amino vs 3″-hydroxy derivatives [7]: increased activity"
"NC[C@H]1O[C@H](O[C@H]2[C@H](O)[C@@H](O[C@H]3O[C@H](CO)[C@@H](O)[C@H](N)[C@H]3O)[C@H](N)C[C@@H]2N)[C@H](N)[C@@H](O)[C@@H]1O [Compound 7, kanamycin B, reference compound]",4 µg/mL,NA (NA represents no activity at 128 μg/mL),NA (NA represents no activity at 128 μg/mL),32 µg/mL,2 µg/mL,"antibacterial activity, 6′-amino vs 6′-hydroxy pseudotrisaccharides [7]: more active; antibacterial activity, 3″-amino vs 3″-hydroxy derivatives [7]: increased activity"
"NC[C@@H]1O[C@@H](O[C@H]2[C@H](O)[C@@H](O[C@H]3O[C@H](CO)[C@@H](O)[C@H](N)[C@H]3O)[C@H](N)C[C@@H]2N)[C@@H](O)[C@H](O)[C@H]1O [Compound 8, kanamycin A, reference compound]",4 µg/mL,NA (NA represents no activity at 128 μg/mL),NA (NA represents no activity at 128 μg/mL),16 µg/mL,2 µg/mL,"antibacterial activity, 6′-amino vs 6′-hydroxy pseudotrisaccharides [7]: more active; antibacterial activity, 3″-amino vs 3″-hydroxy derivatives [7]: increased activity"
"NCC[C@H](O)C(=O)N[C@@H]1C[C@H](N)[C@@H](O[C@H]2O[C@H](CO)[C@@H](O)[C@H](O)[C@H]2O)[C@H](O)[C@H]1O[C@H]1O[C@H](CO)[C@@H](O)[C@H](N)[C@H]1O [Compound 17, 1-N-AHBA-kanamycin X]",,,,,,"MIC ([1]; Escherichia coli, E. coli CCARM 1A020, kanamycin-sensitive clinically isolated strain, read-out: MIC): 32 µg/mL; MIC [2, 8]: 16 µg/mL; MIC [3]: 16 µg/mL; antibacterial activity ([7]; against all kanamycin and amikacin-resistant test strains): strong antibacterial activity; antibacterial activity compared with amikacin (compound 15) ([7]; against all the test strains): improved antibacterial activity; MIC ([4]; Escherichia coli, ATCC25922): 16 µg/mL; MIC [5, 9]: 64 µg/mL; antibacterial effect ([5]; amikacin-resistant P. aeruginosa): antibacterial effect; MIC / activity [5]: ~64; MIC [6, 10]: 0.25 µg/mL"
"N[C@H]1[C@@H](O[C@H]2[C@H](O)[C@@H](O)[C@H](N)C[C@@H]2N)O[C@H](CO)[C@@H](O)[C@@H]1O [Compound 3, paromamine]",,,,,,"MIC ([1]; Escherichia coli): 128 µg/mL; MIC ([2]; Escherichia coli): > 128 µg/mL; MIC [3]: > 128 µg/mL; MIC ([4]; Escherichia coli, ATCC25922): 128 µg/mL; MIC [5, 16]: > 128 µg/mL; MIC [6, 17]: > 128 µg/mL"
"NC[C@H]1O[C@H](O[C@H]2[C@H](O)[C@@H](O[C@H]3O[C@H](CO)[C@@H](O)[C@H](O)[C@H]3O)[C@H](N)C[C@@H]2N)[C@H](N)[C@@H](O)[C@@H]1O [Compound 13, 3″-deamino-3″-hydroxykanamycin B]",128 µg/mL,NA (NA represents no activity at 128 μg/mL),NA (NA represents no activity at 128 μg/mL),NA (NA represents no activity at 128 μg/mL),,
NC[C@H]1O[C@H](O[C@H]2[C@H](O)[C@@H](O[C@H]3O[C@H](CO)[C@@H](O)[C@H](N)[C@H]3O)[C@H](N)C[C@@H]2N)[C@H](O)[C@@H](O)[C@@H]1O [kanamycin],,,,,,kanamycin concentration the strain is resistant to (S. venezuelae; S. venezuelae transformants expressing resistance genes gtmF-gtmK-gtmL): > 10.0 mg/mL; kanamycin concentration the strain is resistant to (S. venezuelae; control strains): 0.001 mg/mL
"N[C@@H]1C[C@H](N)[C@@H](O[C@H]2O[C@H](CO)[C@@H](O)[C@H](O)[C@H]2O)C(O)[C@H]1O[C@H]1O[C@H](CO)[C@@H](O)[C@H](O)[C@H]1O (stereo partly shown) [Compound 11, 3″-deamino-3″-hydroxykanamycin X]",NA (NA represents no activity at 128 μg/mL),NA (NA represents no activity at 128 μg/mL),NA (NA represents no activity at 128 μg/mL),NA (NA represents no activity at 128 μg/mL),,
"N[C@@H]1[C@@H](O)[C@@H](O[C@@H]2[C@@H](O)[C@H](O[C@H]3O[C@H](CO)[C@@H](O)[C@H](O)[C@H]3O)[C@@H](N)C[C@H]2N)O[C@H](CO)[C@H]1O [Compound 12, kanamycin X]",16 µg/mL,NA (NA represents no activity at 128 μg/mL),NA (NA represents no activity at 128 μg/mL),64 µg/mL,16 µg/mL,"antibacterial activity, 3″-amino vs 3″-hydroxy derivatives [7]: increased activity"
"N[C@H]1[C@@H](O[C@H]2[C@H](O)[C@@H](O[C@H]3O[C@H](CO)[C@@H](O)[C@H](O)[C@H]3O)[C@H](N)C[C@@H]2N)O[C@H](CO)[C@@H](O)[C@@H]1O [Compound 5, 3″-deamino-3″-hydroxykanamycin C]",NA (NA represents no activity at 128 μg/mL),NA (NA represents no activity at 128 μg/mL),NA (NA represents no activity at 128 μg/mL),NA (NA represents no activity at 128 μg/mL),128 µg/mL,
"NC1CC(N)C(OC2OC(CO)C(O)C(O)C2O)C(O)C1O (stereo not shown) [Compound 9, 2′-deamino-2′-hydroxyparomamine]",128 µg/mL,NA (NA represents no activity at 128 μg/mL),NA (NA represents no activity at 128 μg/mL),NA (NA represents no activity at 128 μg/mL),,
"NC[C@H]1O[C@H](O[C@H]2[C@H](O)[C@@H](O)[C@H](N)C[C@@H]2N)[C@H](N)[C@@H](O)[C@@H]1O [Compound 4, neamine]",,,,,,"MIC ([1]; Escherichia coli): 64 µg/mL; MIC ([2]; Escherichia coli): > 128 µg/mL; MIC [3]: > 128 µg/mL; antibacterial activity, 6′-amino vs 6′-hydroxy pseudodisaccharides [7]: more active; MIC ([4]; Escherichia coli, ATCC25922): 64 µg/mL; MIC [5, 16]: > 128 µg/mL; MIC [6, 17]: 128 µg/mL"
